Entries after “also recorded” stand apart in the source; their conditions may differ.
Legend:
mushroom tyrosinase = experiment: Spectrophotometric (UV-Vis) detection of tyrosinase inhibitory activity; type: biochemical; conditions: for tyrosinase inhibition in words, tyrosine versus dopamine as substrate: UV-Vis, absorbance at 311 or 472 nm, Figure 3
Description: Kinetic assays were carried out by measuring the appearance of the product of either tyrosine or dopamine oxidation in the reaction medium at 311 and 472 nm, respectively, in a Shimadzu UV-2501 spectrophotometer (Shimadzu, Kyoto, Japan) equipped with the UV-Probe software, using a tandem quartz cuvette (Hellma, Milan, Italy) with a 2 × 4.375-mm path length [1, 2, 51]. Briefly, one side of the dual chamber cuvette was filled with 1000 µl of mushroom tyrosinase solution in 50 mM phosphate buffer, pH 6.8, 166 Units/mL using tyrosine as substrate or a 16.6 Units/mL when dopamine was used as substrate. The other chamber was loaded with 980 µL of substrate solution (180 µM tyrosine or 18 µM dopamine) in 20 mM phosphate buffer (pH 6.8) added of either 20 µL of DMSO (control) or 20 µL of a 2 mM (0.2 mM in dopamine experiments) solution of tested inhibitors in DMSO. A background spectrum in the 250–700 nm range was acquired with a 2.0 nm slit and fast speed before starting the reaction. Thereafter, the solutions in the two chambers were mixed by inversion and the UV-Vis spectra were acquired at increasing time intervals. Spectra were recorded at 311 or 472 nm in the presence of the inhibitor before mixing, and after either 24 or 10 min, using tyrosine or dopamine as a substrate, respectively. Data processing was performed with UV Probe and OriginPro 2019 (v. 9.60) softwares.
The mushroom tyrosinase was used as purchased without further purification. All solutions (tyrosinase, substrates and inhibitors) were filtered through a 0.45-μm syringe filter, aliquoted in Eppendorf tubes, and stored in freezer. The relative concentration was determined spectrophotometrically (εtyrosine 274.6 nm = 1420 M^−1·cm^−1; εdopamine at 280 nm = 2670 M^−1·cm^−1; εtyrosinase at 280 nm = 1426 M^−1·cm^−1).
Tyrosine was dissolved in 50 mM phosphate buffer, pH 6.8, final concentration 80 µM and with the added inhibitor (final concentration 20 µM) and tyrosinase (83 U/mL). The absorbance values were determined after 24 min of incubation. In the presence of dopamine, experiments were performed using 10-fold diluted solutions, and the absorbance values were determined after 10 min of incubation.

tyrosinase = tyrosinase (Agaricus bisporus, UniProt C7FF04); experiment: Tyrosinase amperometric biosensor: IC50 and type of inhibition; type: biochemical; conditions: for Type of Inhibition Tyrosinase: Lineweaver-Burk plot, biosensor exposed 30 min to twice the lowest inhibiting concentration; for VMAX, substrate + inhibitor, TYR: dopamine calibration 0-140 mM after inhibitor exposure, n=4 biosensors;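 as to all read-outs here: Carbon-composite amperometric tyrosinase biosensors with polyurethane-entrapped enzyme, calibrated in a three-electrode cell against Ag/AgCl at room temperature, before versus after inhibitor exposure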
Sequence of tyrosinase (C7FF04 2-392): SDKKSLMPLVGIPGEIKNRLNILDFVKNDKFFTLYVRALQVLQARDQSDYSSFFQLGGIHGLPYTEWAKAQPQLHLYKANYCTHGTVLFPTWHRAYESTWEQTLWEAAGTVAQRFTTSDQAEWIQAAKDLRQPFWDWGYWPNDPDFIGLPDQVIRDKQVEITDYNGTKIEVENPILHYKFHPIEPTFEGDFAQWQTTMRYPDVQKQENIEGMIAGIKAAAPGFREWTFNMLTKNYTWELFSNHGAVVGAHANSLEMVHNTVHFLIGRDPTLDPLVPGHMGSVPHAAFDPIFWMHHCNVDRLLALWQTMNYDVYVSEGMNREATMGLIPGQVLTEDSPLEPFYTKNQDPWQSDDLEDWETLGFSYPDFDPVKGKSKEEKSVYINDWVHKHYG
Description: (§1) Inhibition types and IC50 were assessed by means of carbon-based amperometric biosensors [61, 62, 63, 64, 65], that are described in the Supplementary Materials. During the experiments carried out to determine the IC50 values, the lowest inhibitory concentration of each compound was also evaluated.
(§2) To verify the inhibition types, the following protocol was used. An initial calibration with dopamine, ranging between 0 and 140 mM, was performed in order to ascertain the values of VMAX and KM. Another calibration with the same protocol was performed after having exposed the biosensors to twice the lowest inhibiting concentration of each inhibitor, in order to ensure the safe inhibition of enzymatic activity. The biosensors were exposed to the inhibitor for 30 min and after having reached a stabile baseline, a calibration with dopamine, ranging between 0 and 140 mM, was performed and the value of VMAX and KM were calculated. The variations of both VMAX and KM were then analyzed by using the Lineweaver-Burk plot in order to identify the type of inhibition induced by the tested compound. The statistical difference in VMAX and KM, before exposing the biosensors to the inhibitor and then afterwards, was calculated by means of a paired t-test (p < 0.05).
(§3) The biosensors were prepared starting from a Teflon™-insulated silver wire (30 mm in length; Ø = 125 μm),
(§4) Briefly, 1 mm of the silver wire was exposed and then introduced into a silica
(§5) capillary cylinder (10 mm in length; I.D. Ø = 180 μm, Polymicro Technologies, Phoenix, AZ, USA) partly
(§6) packed with graphite-loaded (55% w/w) epoxy resin. By mixing 850 mg of graphite with 500 mg of Araldite-
(§7) M and 200 mg of hardener, a preliminary disc electrode of carbon-composite was fabricated (Ø = 180 μm; area:
(§8) 2.5 × 10−4 cm2) by filling the silica capillary tubing with the mixture. The silver wire assured a good electrical
(§9) contact. After 24 h at 40 °C, the electrode surface was cleaned using a high-speed drill (Dremel® 300) equipped
(§10) with an aluminum oxide grinding wheel. On top of the electrode surface a 1 µl of Tyrosinase or Laccase
(§11) solution was deposited. After the complete evaporation of water at room temperature, the biosensor was
(§12) quickly dipped in the polyurethane solution in order to entrap the enzyme on the electrode surface, and after
(§13) the complete evaporation of the solvent biosensors were put to stabilize in PBS pH=6.0 overnight.
(§14) The electrochemical measurements were performed at room temperature in a classical three-electrode
(§15) electrochemical cell consisting of four biosensors as working electrodes, a reference electrode (Ag/AgCl in
(§16) Constant potential amperometry (CPA) was used for in-vitro calibrations and for inhibition evaluation
(§17) experiments by applying a constant potential of -50 mV against an Ag/AgCl reference electrode, by means of
(§18) a four-channel potentiostat (eDAQ Quadstat, e- Corder 410, eDAQ Europe, Poland) and the software Chart (v
(§19) 5.5, eDAQ Europe, Poland). Thus, once the stabilization of the baseline of biosensors was reached, increasing
(§20) volumes of a stock solution of dopamine 1 M were added in order to obtain different concentrations ranging

laccase = experiment: Laccase amperometric biosensor: IC50 and type of inhibition; type: biochemical; conditions: for Type of Inhibition Laccase: Lineweaver-Burk plot, biosensor exposed 30 min to twice the lowest inhibiting concentration; for VMAX, substrate + inhibitor, LAC: dopamine calibration 0-140 mM after inhibitor exposure, n=4 biosensors; for IC50: enzyme immobilized on biosensor, dopamine 50 µM, PBS pH 6.0
Description: as §1, §2, §3, §4, §5, §6, §7, §8, §9, §10, §11, §12, §13, §14, §15, §16, §17, §18, §19, §20

PC12 cells [1] = experiment: Viability of PC12 cells (MTT assay); type: cell-based, rat; conditions: cell viability < 80%; screening from 1 to 40 μM, 24 h
Description: Initially, the inhibitor concentrations on PC12 cells, i.e., a rat pheochromocytoma-derived cell line, were screened to assess the possible cytotoxicity of the molecules under study [55].
(§21) 1.4 Viability and oxidative stress assays
(§22) PC12 cells, rat pheochromocytoma-derived cell line (ATCCCRL-1721) (passages 12–25) were maintained at 37
(§23) °C humidified air containing 5% CO2/95% atmospheric air and cultured in a 60 mm plastic culture plates with
(§24) Dulbecco’s modified Eagle’s medium supplemented with 10% horse serum, 5% fetal bovine serum and 1% of
(§25) penicillin/streptomycin. PC12 cells were treated for 24 h with the different compounds at different
concentrations ranging from 1 to 40 μM, to evaluate their eventual toxicity.
(§26) For all treatments cell viability was measured by means of MTT assay, as explained in
the following paragraph [17].
(§27) At the end of the exposure time of each experiment, the cell viability was assessed by means of MTT (3-(4,5-
(§28) dimethyl-thiazol-2-yl)-2,5-diphenyltetrazoliumbromide) assay. For this purpose, 1 mg/mL of MTT was added
(§29) to each sample and incubated for 4 h at 37 °C. Only viable cells are able to convert the soluble dye MTT into
(§30) the insoluble formazan crystals. After the incubation the MTT supernatant solution was removed, the cells
(§31) were washed in phosphate-buffered saline (PBS) and centrifuged while the pellet was dissolved in 2 mL of
(§32) isopropanol. After centrifugation of the solution at 4,000 rpm for 5 min, the absorbance for each sample was
(§33) assessed by means of a Bauty Diagnostic Microplate Reader at 578 nm. All experiments were performed in 24-
(§34) well plates (1 × 10^5 cells/mL/well) and repeated in triplicate.

PC12 cells [2] = experiment: Protection of PC12 cells against H2O2-induced oxidative stress (MTT); type: cell-based, rat; conditions: for H2O2 Damage Protection: concentration with significant increase in viability vs H2O2, co-treatment with 100 μM H2O2, n.p.: no protection
Description: as §21, §22, §23, §24, §25
(§35) concentrations ranging from 1 to 40 μM, to evaluate their eventual toxicity. Then, in order to assess the
(§36) eventual compounds’ protection properties, PC12 cell treated with hydrogen peroxide (100μM) in association
with increasing concentration of the above-mentioned molecules, from 1 up to 20 μM.
as §26, §27, §28, §29, §30, §31, §32, §33, §34

PC12 cells [3] = experiment: Protection of PC12 cells against MnCl2 damage (MTT); type: cell-based, rat; conditions: concentration with significant increase in viability vs MnCl2; co-treatment with 1 mM MnCl2; n.p.: no protection
Description: as §22, §23, §24, §25, §35, §36
with increasing concentration of the above-mentioned molecules, from 1 up to 20 μM. For the compounds that
against MnCl2 insult. For all treatments cell viability was measured by means of MTT assay, as explained in
as §27
For this purpose, 1 mg/mL of MTT was added
as §29
the insoluble formazan crystals. After the incubation the MTT supernatant solution was removed, the cells […]
as §32
assessed by means of a Bauty Diagnostic Microplate Reader at 578 nm. […]

Tenebrio molitor = experiment: Insecticidal properties on mealworm larvae; type: in vivo; conditions: Tenebrio molitor, topical, 120 h, larvae immersed three seconds in 2.5 mL acetone solution 6.4 mg/mL, reared five days; DFB as Dimilin WP 25% a.i., 25.6 mg/mL; read-out: Mortality% (Mean ± SD)
Description: Late instar larvae of Tenebrio molitor from a twenty-year-old insect culture at the Research Institute on Terrestrial Ecosystems (National Research Council, Sassari, Italy) were used in the experiments. The species was reared on bran flour, with the integration of fresh vegetables, at 25 °C, 65% relative humidity and 16:8 hours light/darkness.
One hundred medium instar larvae were isolated in a petri dishes (diam. 50 mm). They were then immersed for three seconds in 2.5 mL of an acetone solution (concentration 6.4 mg/mL w:v) of one of the fourteen compounds listed in Table 3. In addition, a treatment with the commercial formulation Dimilin (WP, 25% a.i. diflubenzuron) (acetone solution, 25.6 mg/mL w:v) and a negative control (no treatment) were tested.
After treatment, the larvae were subdivided into five 20-specimen groups and reared for five days in a small PVC box (150 L × 120 W × 50 H mm) with the same feed and conditions as standard rearing. Mortality was recorded daily.
The statistical analysis was conducted with the R software (R Development Core Team 2016). Mortality data, expressed as a percentage, were arcsin(√x)-transformed to satisfy assumptions of normality. ANOVA was performed by the Duncan test for mean separation.

Structure (SMILES)	% inhibition of tyrosinase (mushroom tyrosinase; comparable with both substrates, tyrosine 80 µM, inhibitor 20 µM, 24 min, dopamine 10-fold diluted solutions, 10 min)	Type of Inhibition Tyrosinase (tyrosinase)	VMAX, substrate + inhibitor, TYR (tyrosinase)	Type of Inhibition Laccase (laccase)	VMAX, substrate + inhibitor, LAC (laccase)	IC50 (laccase)	Toxic Concentration (PC12 cells [1])	H2O2 Damage Protection (PC12 cells [2])	MnCl2 Damage Protection (PC12 cells [3])	tyrosinase inhibition in words, tyrosine versus dopamine as substrate (mushroom tyrosinase)	pest or weed control at 6400 µg/mL (Tenebrio molitor)	change of cell viability versus H2O2 alone, in words (PC12 cells [2]; co-treatment with 100 μM H2O2, compounds 1 up to 20 μM)	melting point
COc1cc(/C=C/C(=O)c2ccccc2)ccc1O [Compound 10]	10%	uncompetitive or mixed; also recorded: mixed	31.5±2.9 nA	competitive	89.2±7.7 nA	212 nM	>20 µM	20 µM	n.p.	–	–	–	–
CC(=O)C=Cc1ccc(O)cc1O [Compound 7, reference compound]	–	competitively; also recorded: competitive	114.1±12.5 nA	competitively; also recorded: competitive	188.4±9.0 nA	–	>10 µM	1 µM	n.p.	most active tyrosinase inhibitor in the presence of both substrates	5 ± 7.07%	–	–
OC[C@H]1O[C@@H](Oc2ccc(-c3ccc(O)cc3)cc2)[C@H](O)[C@@H](O)[C@@H]1O [Compound 18, (2S,3R,4S,5S,6R)-2-((4’-hydroxy-[1,1’-biphenyl]-4-yl)oxy)-6-(hydroxymethyl)tetrahydro-2H-pyran-3,4,5-triol]	–	competitively; also recorded: competitive	145.8±17.8 nA	competitively; also recorded: competitive	98.1±3.3 nA	2620 nM	none	n.p.	–	predominant inhibition of tyrosine oxidation	–	significant decrease (p < 0.05 vs H2O2) in cells viability at all concentrations tested	260 to 262 °C

— paper PMC7321210, “Synthesis and Studies of the Inhibitory Effect of Hydroxylated Phenylpropanoids and Biphenols Derivatives on Tyrosinase and Laccase Enzymes” (Molecules, 2020)
